# According to PubChem BioAssay AID1745844 (Carcinogenic Potency Database (CPDB), 2022):
# Calls of active or inactive are those of the source. How the calls were made is not given here.
# Tested on: rodent lifetime carcinogenesis bioassay, tumor incidence TD50
# Experiment: chronic cancer bioassays in animals – CPDB, compiled studies (AID 1745844)
compound,measurement,setting,value
C1CO1,TD50,"mouse, strain B6C3F1, females, inhaled, site: Harderian gland + lung, lesion: papillary cystadenoma, NOS + alveolar/bronchiolar adenoma + alveolar/bronchiolar carcinoma, dosed 102 weeks, study length 104 weeks",45.8 mg/kg/day
same,TD50,"mouse, strain B6C3F1, females, inhaled, site: Harderian gland, lesion: papillary cystadenoma, NOS, dosed 102 weeks, study length 104 weeks",142 mg/kg/day
same,TD50,"mouse, strain B6C3F1, females, inhaled, site: any site (literature study), lesion: several types, types named in the paper, dosed 102 weeks, study length 104 weeks",103 mg/kg/day
same,TD50,"mouse, strain B6C3F1, females, inhaled, site: duodenum + Harderian gland + kidney + lung + mediastinum + mammary gland + mesenteric lymph node + multiple organs + spleen + uterus, lesion: malignant lymphoma, NOS + papillary cystadenoma, NOS + alveolar/bronchiolar adenoma + alveolar/bronchiolar carcinoma + adenocarc, dosed 102 weeks, study length 104 weeks",39.2 mg/kg/day
same,TD50,"mouse, strain B6C3F1, females, inhaled, site: duodenum + kidney + mediastinum + mammary gland + mesenteric lymph node + multiple organs + spleen + uterus, lesion: malignant lymphoma, NOS + adenocarcinoma, NOS + adenosquamous carcinoma + malignant lymphoma, histiocytic type + adenoma, NOS, dosed 102 weeks, study length 104 weeks",79.2 mg/kg/day
same,TD50,"mouse, strain B6C3F1, females, inhaled, site: duodenum + kidney + mediastinum + mesenteric lymph node + multiple organs + spleen + uterus, lesion: malignant lymphoma, NOS + malignant lymphoma, histiocytic type, dosed 102 weeks, study length 104 weeks",139 mg/kg/day
same,TD50,"mouse, strain B6C3F1, females, inhaled, site: liver, lesion: hepatocellular adenoma + hepatocellular carcinoma + neoplastic nodule, dosed 102 weeks, study length 104 weeks",149 mg/kg/day
same,TD50,"mouse, strain B6C3F1, females, inhaled, site: liver, lesion: hepatocellular adenoma, dosed 102 weeks, study length 104 weeks",75.8 mg/kg/day
same,TD50,"mouse, strain B6C3F1, females, inhaled, site: lung, lesion: alveolar/bronchiolar adenoma + alveolar/bronchiolar carcinoma, dosed 102 weeks, study length 104 weeks",61.8 mg/kg/day
same,TD50,"mouse, strain B6C3F1, females, inhaled, site: lung, lesion: alveolar/bronchiolar adenoma, dosed 102 weeks, study length 104 weeks",87.5 mg/kg/day
same,TD50,"mouse, strain B6C3F1, females, inhaled, site: lung, lesion: alveolar/bronchiolar carcinoma, dosed 102 weeks, study length 104 weeks",200 mg/kg/day
same,TD50,"mouse, strain B6C3F1, females, inhaled, site: mammary gland, lesion: adenocarcinoma, NOS + adenosquamous carcinoma, dosed 102 weeks, study length 104 weeks",76.3 mg/kg/day
same,TD50,"mouse, strain B6C3F1, females, inhaled, site: uterus, lesion: adenocarcinoma, NOS + adenoma, NOS, dosed 102 weeks, study length 104 weeks",250 mg/kg/day
same,TD50,"mouse, strain B6C3F1, females, inhaled, site: uterus, lesion: adenocarcinoma, NOS, dosed 102 weeks, study length 104 weeks",297 mg/kg/day
same,TD50,"mouse, strain B6C3F1, males, inhaled, site: Harderian gland + lung, lesion: papillary cystadenoma, NOS + alveolar/bronchiolar adenoma + alveolar/bronchiolar carcinoma, dosed 102 weeks, study length 104 weeks",51.2 mg/kg/day
same,TD50,"mouse, strain B6C3F1, males, inhaled, site: Harderian gland, lesion: papillary cystadenoma, NOS, dosed 102 weeks, study length 104 weeks",110 mg/kg/day
same,TD50,"mouse, strain B6C3F1, males, inhaled, site: any site (literature study), lesion: several types, types named in the paper, dosed 102 weeks, study length 104 weeks",108 mg/kg/day
same,TD50,"mouse, strain B6C3F1, males, inhaled, site: liver, lesion: hepatocellular adenoma + hepatocellular carcinoma + neoplastic nodule, dosed 102 weeks, study length 104 weeks",273 mg/kg/day
same,TD50,"mouse, strain B6C3F1, males, inhaled, site: lung, lesion: alveolar/bronchiolar adenoma + alveolar/bronchiolar carcinoma, dosed 102 weeks, study length 104 weeks",65.7 mg/kg/day
same,TD50,"mouse, strain B6C3F1, males, inhaled, site: lung, lesion: alveolar/bronchiolar adenoma, dosed 102 weeks, study length 104 weeks",181 mg/kg/day
same,TD50,"mouse, strain B6C3F1, males, inhaled, site: lung, lesion: alveolar/bronchiolar carcinoma, dosed 102 weeks, study length 104 weeks",110 mg/kg/day
same,TD50,"rat, strain Fischer 344/Mai fBR, females, inhaled, site: brain, lesion: several types, types named in the paper, dosed 76 weeks, study length 78 weeks",237 mg/kg/day
same,TD50,"rat, strain Fischer 344/Mai fBR, females, inhaled, site: brain, lesion: several types, types named in the paper, dosed 101 weeks, study length 104 weeks",143 mg/kg/day
same,TD50,"rat, strain Fischer 344/Mai fBR, females, inhaled, site: pituitary gland, lesion: adenoma, dosed 76 weeks, study length 78 weeks",29.8 mg/kg/day (inactive)
same,TD50,"rat, strain Fischer 344/Mai fBR, males, inhaled, site: adrenal gland, lesion: pheochromocytoma, dosed 76 weeks, study length 78 weeks",26.1 mg/kg/day (inactive)
same,TD50,"rat, strain Fischer 344/Mai fBR, males, inhaled, site: brain, lesion: astrocytoma, dosed 76 weeks, study length 78 weeks",102 mg/kg/day
same,TD50,"rat, strain Fischer 344/Mai fBR, males, inhaled, site: brain, lesion: several types, types named in the paper, dosed 105 weeks, study length 108 weeks",70.7 mg/kg/day
same,carcinogen call,"rat, strain Fischer 344/Mai fBR, males, inhaled, site: pituitary gland, lesion: adenoma, dosed 76 weeks, study length 78 weeks",negative (inactive)
same,carcinogen call,"rat, strain Fischer 344/Mai fBR, males, inhaled, site: testis, lesion: interstitial-cell tumor, dosed 76 weeks, study length 78 weeks",negative (inactive)
same,TD50,"rat, strain Fischer 344, males, inhaled, site: brain, lesion: glioma, dosed 101 weeks, study length 104 weeks",121 mg/kg/day
same,TD50,"rat, strain Fischer 344, males, inhaled, site: peritoneum, lesion: mesothelioma, dosed 101 weeks, study length 104 weeks",30.8 mg/kg/day
same,TD50,"rat, strain Fischer 344, males, inhaled, site: spleen, lesion: mononuclear-cell leukemia, dosed 101 weeks, study length 104 weeks",47.3 mg/kg/day
same,TD50,"rat, strain Sprague-Dawley, females, by gavage, site: forestomach, lesion: squamous-cell carcinoma, dosed 107 weeks, study length 150 weeks",10.6 mg/kg/day
same,TD50,"rat, strain Sprague-Dawley, females, by gavage, site: mammary gland, lesion: adenofibroma, dosed 107 weeks, study length 150 weeks",10 mg/kg/day (inactive)
same,TD50,"rat, strain Sprague-Dawley, females, by gavage, site: stomach, lesion: several types, types named in the paper, dosed 107 weeks, study length 150 weeks",7.43 mg/kg/day
CCN(CC)c1ccc2c(-c3ccc(S(=O)(=O)O)cc3S(=O)(=O)[O-])c3ccc(=[N+](CC)CC)cc-3oc2c1,TD50,"rat, strain F344/DuCrj, females, in feed, site: any site (literature study), lesion: several types, types named in the paper, dosed 106 weeks, study length 106 weeks",4100 mg/kg/day (inactive)
same,carcinogen call,"rat, strain F344/DuCrj, females, in feed, site: liver, lesion: one or several types, types not named, dosed 106 weeks, study length 106 weeks",negative (inactive)
same,TD50,"rat, strain F344/DuCrj, males, in feed, site: any site (literature study), lesion: several types, types named in the paper, dosed 106 weeks, study length 106 weeks",2350 mg/kg/day (inactive)
same,carcinogen call,"rat, strain F344/DuCrj, males, in feed, site: liver, lesion: neoplastic nodule, dosed 106 weeks, study length 106 weeks",negative (inactive)
CNC(=O)ON=C(SC)C(=O)N(C)C,carcinogen call,"mouse, strain Charles River CD1, females, in feed, site: any site (literature study), lesion: several types, types named in the paper, dosed 104 weeks, study length 104 weeks",negative (inactive)
same,carcinogen call,"mouse, strain Charles River CD1, males, in feed, site: any site (literature study), lesion: several types, types named in the paper, dosed 104 weeks, study length 104 weeks",negative (inactive)
same,carcinogen call,"rat, strain Charles River CD (Sprague-Dawley), females, in feed, site: liver, lesion: hepatocellular hyperplastic nodule, dosed 104 weeks, study length 104 weeks",negative (inactive)
same,carcinogen call,"rat, strain Charles River CD (Sprague-Dawley), males, in feed, site: liver, lesion: one or several types, types not named, dosed 104 weeks, study length 104 weeks",negative (inactive)
ClCC(Cl)Cl,TD50,"mouse, strain B6C3F1, females, by gavage, site: adrenal gland + liver, lesion: pheochromocytoma + hepatocellular carcinoma, dosed 78 weeks, study length 90 weeks",47.6 mg/kg/day
same,TD50,"mouse, strain B6C3F1, females, by gavage, site: adrenal gland, lesion: pheochromocytoma, dosed 78 weeks, study length 90 weeks",248 mg/kg/day
same,TD50,"mouse, strain B6C3F1, females, by gavage, site: any site (literature study), lesion: several types, types named in the paper, dosed 78 weeks, study length 90 weeks",52.9 mg/kg/day
same,TD50,"mouse, strain B6C3F1, females, by gavage, site: liver, lesion: hepatocellular adenoma + hepatocellular carcinoma + neoplastic nodule, dosed 78 weeks, study length 90 weeks",47.6 mg/kg/day
same,TD50,"mouse, strain B6C3F1, females, by gavage, site: liver, lesion: hepatocellular carcinoma, dosed 78 weeks, study length 90 weeks",47.6 mg/kg/day
same,TD50,"mouse, strain B6C3F1, females, by gavage, site: lung, lesion: alveolar/bronchiolar adenoma + alveolar/bronchiolar carcinoma, dosed 78 weeks, study length 90 weeks",787 mg/kg/day
same,TD50,"mouse, strain B6C3F1, males, by gavage, site: adrenal gland + liver, lesion: pheochromocytoma + hepatocellular carcinoma, dosed 78 weeks, study length 90 weeks",65 mg/kg/day
same,TD50,"mouse, strain B6C3F1, males, by gavage, site: adrenal gland, lesion: pheochromocytoma, dosed 78 weeks, study length 90 weeks",588 mg/kg/day
same,TD50,"mouse, strain B6C3F1, males, by gavage, site: any site (literature study), lesion: several types, types named in the paper, dosed 78 weeks, study length 90 weeks",79.5 mg/kg/day
same,TD50,"mouse, strain B6C3F1, males, by gavage, site: liver, lesion: hepatocellular adenoma + hepatocellular carcinoma + neoplastic nodule, dosed 78 weeks, study length 90 weeks",65 mg/kg/day
same,TD50,"mouse, strain B6C3F1, males, by gavage, site: liver, lesion: hepatocellular carcinoma, dosed 78 weeks, study length 90 weeks",65 mg/kg/day
same,TD50,"mouse, strain B6C3F1, males, by gavage, site: lung, lesion: alveolar/bronchiolar adenoma + alveolar/bronchiolar carcinoma, dosed 78 weeks, study length 90 weeks",1560 mg/kg/day
same,carcinogen call,"rat, strain Osborne-Mendel, females, by gavage, site: any site (literature study), lesion: several types, types named in the paper, dosed 78 weeks, study length 112 weeks",negative (inactive)
same,TD50,"rat, strain Osborne-Mendel, females, by gavage, site: liver, lesion: hepatocellular adenoma + hepatocellular carcinoma + neoplastic nodule, dosed 78 weeks, study length 112 weeks",771 mg/kg/day
same,carcinogen call,"rat, strain Osborne-Mendel, males, by gavage, site: any site (literature study), lesion: several types, types named in the paper, dosed 78 weeks, study length 112 weeks",negative (inactive)
NC(=S)NNC(N)=S,TD50,"mouse, strain B6C3F1, females, in feed, site: any site (literature study), lesion: several types, types named in the paper, dosed 94 weeks, study length 94 weeks",4350 mg/kg/day
same,TD50,"mouse, strain B6C3F1, females, in feed, site: liver, lesion: hepatocellular adenoma + hepatocellular carcinoma + neoplastic nodule, dosed 94 weeks, study length 94 weeks",5670 mg/kg/day
same,TD50,"mouse, strain B6C3F1, females, in feed, site: liver, lesion: hepatocellular carcinoma, dosed 94 weeks, study length 94 weeks",5670 mg/kg/day
same,TD50,"mouse, strain B6C3F1, females, in feed, site: lung, lesion: alveolar/bronchiolar adenoma + alveolar/bronchiolar carcinoma, dosed 94 weeks, study length 94 weeks",22900 mg/kg/day
same,TD50,"mouse, strain B6C3F1, males, in feed, site: any site (literature study), lesion: several types, types named in the paper, dosed 94 weeks, study length 94 weeks",20000 mg/kg/day (inactive)
same,TD50,"rat, strain Fischer 344, females, in feed, site: any site (literature study), lesion: several types, types named in the paper, dosed 109 weeks, study length 109 weeks",842 mg/kg/day (inactive)
same,TD50,"rat, strain Fischer 344, females, in feed, site: liver, lesion: hepatocellular adenoma + hepatocellular carcinoma + neoplastic nodule, dosed 109 weeks, study length 109 weeks",131000 mg/kg/day
same,TD50,"rat, strain Fischer 344, males, in feed, site: any site (literature study), lesion: several types, types named in the paper, dosed 109 weeks, study length 109 weeks",960 mg/kg/day
same,TD50,"rat, strain Fischer 344, males, in feed, site: liver, lesion: hepatocellular adenoma + hepatocellular carcinoma + neoplastic nodule, dosed 109 weeks, study length 109 weeks",5010 mg/kg/day
same,TD50,"rat, strain Fischer 344, males, in feed, site: pituitary gland, lesion: carcinoma, NOS, dosed 109 weeks, study length 109 weeks",2620 mg/kg/day (inactive)
COC(=O)[C@H]1[C@H]2C[C@@H]3c4[nH]c5ccccc5c4CCN3C[C@H]2C[C@@H](OC(=O)c2cc(OC)c(OC)c(OC)c2)[C@@H]1OC,TD50,"rat, strain Wistar, both sexes, in feed, site: several sites, sites named in the paper, lesion: several types, types named in the paper, dosed 78 weeks, study length 78 weeks",1.28 mg/kg/day (inactive)
NC1=NCN([C@@H]2O[C@H](CO)[C@@H](O)[C@H]2O)C(=O)N1,TD50,"rat, strain Fischer 344, males, i.p., site: any site (literature study), lesion: one or several types, types not named, dosed 52 weeks, study length 52 weeks",20.7 mg/kg/day
